Reference: patent US20060281807A1, “Quassinoid compositions for the treatment of cancer and other proliferative diseases” (Tapestry Pharmaceuticals, Inc., priority 2005, published 2006)

How the values were obtained:
[1] = test system: SK-N-AS; assay: MTT cytotoxicity assay (% kill), SK-N-AS; format: cell-based, human; details: 1 h exposure, MTT after five days
How it was run: (§1)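 Cells grown in 10% FBS Eagles MEM at 37 °C, 5% CO2, sextuplicate wells, exposed to compound at 0.1 or 1.0 μg/mL for 1 h or 24 h. After rinsing, they were cultured 5 more days. Viable cells then measured by MTT, expressed as % kill.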

[2] = test system: HuTu-80; assay: MTT cytotoxicity assay (% kill), HuTu-80; format: cell-based, human; details: 1 h exposure
Description: (§2) The following human tumor cell lines were obtained and cultured in sextuplicate microwells at 37° C. and 5% CO2 in humidified air and in 10% FBS in Eagles MEM: SK—N—FI, SK—N-AS, LS-174T, WiDr, HuTu-80, MCF7, NCI-AR, MES-Sar, and PL-45. Cells from each cell line were separately treated with an amount of one of the compounds of Formula I, II, or III (see Table 1). Cells were exposed to each compound (0.1 μg/mL or 1.0 μg/mL) for one hour or 24 hours, rinsed with drug-free media, and incubated for an additional five days. The number of viable cells after five days was measured using an MTT (3-(4,5-dimethylthiazol-2-yl)-2,5-diphenyltetrazolium bromide) assay (see, e.g., Mosmann, J. Immunol. Methods, 65(1-2), 55-63 (1983)).
(§3) The cytotoxicity of each drug was determined and expressed as the percent of cells killed (“% kill”).

[3] = test system: LS-174T; assay: MTT cytotoxicity assay (% kill), LS-174T; format: cell-based, human; details: 1 h exposure, MTT after five days
How it was run: as §1

[4] = test system: MCF7; assay: MTT cytotoxicity assay (% kill), MCF7; format: cell-based, human; details: 1 h exposure
Description: as §2, §3

[5] = Pharmacokinetics, plasma and tumor concentration by HPLC in HCT-116 tumor-bearing SCID mice; format: in vivo; details: for concentration in plasma / concentration in tumor: 2.25 mg/mouse intravenously
Description: Samples from HCT-116 tumor-bearing SCID mice were analyzed via high performance liquid chromatography (HPLC) following administration of inventive compositions. […] At different time points following administration of the inventive compounds (up to 24 hours), individual mice were killed and both blood and tumor samples were removed for HPLC analysis.
In particular, a Waters 2690 Separation Module (Waters Corp., Milford, Mass.) connected to a Waters 2487 Dual wavelength absorbance detector controlled by Millennium32 v3.20 was used for separation, detection, data acquisition, integration and quantitation. An external standard calibration method was used to quantify the inventive compounds in each sample. A Symmetry Shield RP18 5 μm ([…]) analytical column (Waters Corp., Milford, Mass.) was used in the separation of each inventive compound. The column temperature was maintained at 30° C. 25 μl of each sample was injected per analytical run.
The mobile phase consisted of 99% water/1% acetonitrile as the initial gradient composition for the inventive composition. A gradient analysis from deionized water to acetonitrile at a flow rate of 1 mL/min for each tested compound is set forth in Tables 9 and 10. The detection wavelength for the inventive composition was 278 nm, and the retention time was 7.8 minutes.
For the in vivo pharmacokinetic trial, 15 mice were inoculated bilaterally and subcutaneously in the inguinal area with 10^7 tumor cells (by a 16-gauge needle), such as HCT-116 cells or trocar-implanted Colon 38 cells. Each of the compounds 15-O-(3′-hydroxy-3′-isopropyl-4′-methylpentanoyl)bruceolide and 15-(3-isopropyl-4-methyl-2-pentenoyl)-bruceolide was administered intravenously at the MTD in 0.25 mL via the tail vein. Each compound was administered to 10 animals when the tumors reached a measurable size (i.e., 80 to 300 mm^3) at a dose determined from the MTD study. The remaining five animals served as time-point controls. At prescribed times thereafter, one animal per time point was sacrificed, and blood and bilateral tumors were harvested for analysis of drug concentrations. Specifically, mice were sacrificed for pharmacological analysis at 1, 5, 15, 30, 60, 120, 240, 360 minutes and 12 and 24 hours following administration of the inventive compounds.

[6] = test system: PL-45; assay: MTT cytotoxicity assay (% kill), PL-45; format: cell-based, human; details: 1 h exposure
Description: as §2, §3

[7] = test system: MES-Sar; assay: MTT cytotoxicity assay (% kill), MES-Sar; format: cell-based, human; details: 1 h exposure
Description: as §2, §3

[8] = test system: HCT-116 cells; assay: Clonogenic assay, HCT-116; format: cell-based, human; details: colonies at 7 days
[9] = test system: tumor cells; assay: Inhibition of tumor growth in vivo (% T/C) in SCID mice
Description: SCID mice weighing more than 17 grams were supplied food and water ad libidum. The animals were pooled, implanted subcutaneously with tumor cells, and pooled again before distribution to treatment and control groups. Treatment was started when the tumors were palpable (i.e., 10 days after inoculation). Mice received one of four doses (i.e., 1.6, 1.2, 0.8, and 0.4 mg/mouse) of the inventive compound. Each dose was administered intravenously via the tail vein once per day for 5 days. Mice were killed when their tumors reached 1500 mm^3.
Tumor weights were estimated from two-dimensional caliper measurements performed twice a week according to the following formula: Tumor Weight (mg)=(a×b^2)/2 in which a and b are the tumor length and width, respectively, in millimeters.
Therapeutic efficacy was measured as the % T/C value (T=treated, C=control), which was determined each time a tumor measurement was made. The median tumor weight of the treatment and control groups was determined. A % T/C value equal to or less than 50% indicates antitumor activity. A % T/C value of <10% indicates highly significant antitumor activity, and is the level used by the National Cancer Institute (NCI) to justify a clinical trial if toxicity, formulation and other requirements are met. A weight loss of greater than 20% (mean of group) or greater than 20% drug deaths indicates an excessively toxic dose.

SMILES: COC(=O)[C@@]12OC[C@@]34C1[C@@H](OC(=O)CC(O)(C(C)C)C(C)C)C(=O)O[C@@H]3C[C@H]1C(C)=C(O)C(=O)C[C@]1(C)[C@H]4[C@@H](O)[C@@H]2O (stereo partly drawn) [15-O-(3′-hydroxy-3′-isopropyl-4′-methylpentanoyl)bruceolide]
- % Kill, SK-N-AS ([1]; 0.1 μg/mL): 0%
- % Kill, SK-N-AS ([1]; 1.0 μg/mL): 3%
- % kill, HuTu-80 ([2]; 0.1 μg/mL): 0%
- % kill, HuTu-80 ([2]; 1.0 μg/mL): 7%
- % Kill, LS-174T ([3]; 0.1 μg/mL): 0%
- % Kill, LS-174T ([3]; 1.0 μg/mL): 13%
- % kill, MCF7 ([4]; 0.1 μg/mL): 12%
- % kill, MCF7 ([4]; 1.0 μg/mL): 31%
- survival of mouse designated for analysis ([5]; 24 hours post administration, 2.25 mg/mouse intravenously (above the MTD)): did not survive
- concentration in plasma ([5]; one hour post administration): approximately 7 μg/mL
- concentration in tumor ([5]; one hour post administration): approximately 7 μg/mL
- concentration in plasma ([5]; six hours post administration): 100 ng/mL
- concentration in tumor ([5]; six hours post administration): 800 ng/mL
- concentration in plasma ([5]; two hours post administration): 1500 ng/mL
- concentration in tumor ([5]; two hours post administration): approximately 4 μg/mL
- % kill, PL-45 ([6]; 0.1 μg/mL): 0%
- % kill, PL-45 ([6]; 1.0 μg/mL): 0%
- % kill, MES Sar ([7]; 0.1 μg/mL): 0%
- % kill, MES Sar ([7]; 1.0 μg/mL): 0%
- Concentration Required for 10^−1 Survival Fraction ([8]; HCT-116, 2 Hour Exposure): >10 μg/mL
- Concentration Required for 10^−1 Survival Fraction ([8]; HCT-116, 24 Hour Exposure): 1 × 10^0 μg/mL
- Concentration Required for 10^−1 Survival Fraction ([8]; HCT-116, Continuous Exposure): 7 × 10^−3 μg/mL
- % T/C ([9]; 0.4 mg/mouse intravenously once per day for 5 days (lower dose group)): 31%
- % T/C ([9]; 0.8 mg/mouse intravenously once per day for 5 days (higher dose group of the surviving two)): 16%
- mortality ([9]; highest two doses (1.6 and 1.2 mg/mouse) intravenously once per day for 5 days): died

SMILES: COC(=O)[C@@]12OC[C@@]34C1[C@@H](OC(=O)C=C(C(C)C)C(C)C)C(=O)O[C@@H]3C[C@H]1C(C)=C(O)C(=O)C[C@]1(C)[C@H]4[C@@H](O)[C@@H]2O (stereo partly drawn) [15-O-(3′-isopropyl-4′-methyl-2′-pentenoyl)-bruceolide]
- concentration at 0.5 h ([5]; SCID, in vivo, 0.5 hour time point, intravenous (FIG. 8: 0.075 mg/mouse)): 100 ng/mL
- concentration at 1 h ([5]; SCID, in vivo, 1 hour time point, intravenous (FIG. 8: 0.075 mg/mouse), below sensitivity of the assay): < 50 ng/mL
- level in the tumor, FIG. 8 ([5]; all time points, 0.075 mg/mouse intravenously, detection limit 0.05 μg/mL): below the detection limit
- concentration in tumor samples ([5]; entire 24 hour sampling period, intravenous (FIG. 8: 0.075 mg/mouse)): below the sensitivity level of the assay
- concentration in vivo (plasma), FIG. 8 ([5]; time points 1 to 24 hours, 0.075 mg/mouse intravenously, below detection limit): < 50 ng/mL
- Concentration Required for 10^−1 Survival Fraction ([8]; HCT-116, 2 Hour Exposure): >10 μg/mL
- Concentration Required for 10^−1 Survival Fraction ([8]; HCT-116, 24 Hour Exposure): 1.5 × 10^0 μg/mL
- Concentration Required for 10^−1 Survival Fraction ([8]; HCT-116, Continuous Exposure): 1.5 × 10^−3 μg/mL
